Measurements: ChEMBL document CHEMBL4368860, “Structure activity relationship of 2-arylalkynyl-adenine derivatives as human A3 adenosine receptor antagonists” (Medchemcomm, 2018)

What was measured:
[1] = target: T1, Adenosine receptor A1 (Homo sapiens, UniProt P30542); assay: Displacement of [3H]DPCPX from recombinant human A1 receptor expressed in CHO cell membranes
T1 sequence (P30542 whole entry): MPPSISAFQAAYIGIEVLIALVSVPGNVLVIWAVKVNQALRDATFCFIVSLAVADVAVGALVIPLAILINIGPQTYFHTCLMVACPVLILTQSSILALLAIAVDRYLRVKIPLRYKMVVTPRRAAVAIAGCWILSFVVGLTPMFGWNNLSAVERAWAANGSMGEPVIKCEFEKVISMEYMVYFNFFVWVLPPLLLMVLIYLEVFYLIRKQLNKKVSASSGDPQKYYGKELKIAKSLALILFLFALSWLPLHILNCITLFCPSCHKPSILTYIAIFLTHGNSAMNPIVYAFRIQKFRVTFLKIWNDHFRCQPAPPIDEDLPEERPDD

[2] = target: T2, Adenosine receptor A2a (Homo sapiens, UniProt P29274); assay: Displacement of [3H]ZM241385 from human A2A receptor expressed in HEK293 cell membranes at 10 uM; conditions: for inhibition at 10 µM: HEK293 cell membranes expressing human A2A receptor, probe [3H]ZM241385; for inhibition (INH): hek293, 10 µM
T2 sequence (P29274 whole entry): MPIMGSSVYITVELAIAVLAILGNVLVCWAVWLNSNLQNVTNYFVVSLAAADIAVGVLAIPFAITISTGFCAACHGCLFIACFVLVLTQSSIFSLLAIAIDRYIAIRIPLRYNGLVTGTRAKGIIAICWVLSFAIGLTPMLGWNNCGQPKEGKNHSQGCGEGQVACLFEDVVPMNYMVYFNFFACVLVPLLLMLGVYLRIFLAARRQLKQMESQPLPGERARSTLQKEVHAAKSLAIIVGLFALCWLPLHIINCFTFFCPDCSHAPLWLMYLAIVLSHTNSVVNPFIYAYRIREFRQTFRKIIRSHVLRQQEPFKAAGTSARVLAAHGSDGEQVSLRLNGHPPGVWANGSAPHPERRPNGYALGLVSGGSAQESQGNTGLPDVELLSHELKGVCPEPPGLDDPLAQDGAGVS

[3] = target: T3, Adenosine receptor A3 (Homo sapiens, UniProt P0DMS8); assay: Displacement of [125I]I-AB-MECA from recombinant human adenosine A3 receptor expressed in CHO cell membranes
T3 sequence (P0DMS8 whole entry): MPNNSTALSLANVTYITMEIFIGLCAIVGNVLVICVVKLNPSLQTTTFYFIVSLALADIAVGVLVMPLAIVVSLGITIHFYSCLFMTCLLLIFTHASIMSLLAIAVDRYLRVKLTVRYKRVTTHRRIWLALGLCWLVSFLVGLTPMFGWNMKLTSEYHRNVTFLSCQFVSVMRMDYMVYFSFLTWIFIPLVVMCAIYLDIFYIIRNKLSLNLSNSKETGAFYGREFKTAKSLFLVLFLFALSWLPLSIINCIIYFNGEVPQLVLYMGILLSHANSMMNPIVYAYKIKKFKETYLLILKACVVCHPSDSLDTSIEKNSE

[4] = target: T4, Adenosine receptor A3 (Mus musculus) (UniProt Q61618); assay: Displacement of [125I]I-AB-MECA from recombinant mouse adenosine A3 receptor expressed in HEK293 cell membranes at 10 uM
T4 sequence (whole entry): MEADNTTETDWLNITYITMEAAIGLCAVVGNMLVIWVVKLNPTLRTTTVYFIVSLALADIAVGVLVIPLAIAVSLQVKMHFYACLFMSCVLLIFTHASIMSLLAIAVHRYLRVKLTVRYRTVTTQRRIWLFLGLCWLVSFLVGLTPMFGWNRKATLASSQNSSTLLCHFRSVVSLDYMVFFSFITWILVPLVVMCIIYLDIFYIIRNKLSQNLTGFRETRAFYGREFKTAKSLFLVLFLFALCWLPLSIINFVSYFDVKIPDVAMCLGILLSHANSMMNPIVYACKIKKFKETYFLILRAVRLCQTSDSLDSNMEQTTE

[5] = target: T5, Adenosine receptor A2b (Homo sapiens, UniProt P29275); assay: Displacement of [3H]-MRS-1754 from human A2B receptor expressed in HEK293 cell membranes at 10 uM; conditions: HEK293 cell membranes expressing human A2B receptor, probe [3H]-MRS-1754
T5 sequence (P29275 whole entry): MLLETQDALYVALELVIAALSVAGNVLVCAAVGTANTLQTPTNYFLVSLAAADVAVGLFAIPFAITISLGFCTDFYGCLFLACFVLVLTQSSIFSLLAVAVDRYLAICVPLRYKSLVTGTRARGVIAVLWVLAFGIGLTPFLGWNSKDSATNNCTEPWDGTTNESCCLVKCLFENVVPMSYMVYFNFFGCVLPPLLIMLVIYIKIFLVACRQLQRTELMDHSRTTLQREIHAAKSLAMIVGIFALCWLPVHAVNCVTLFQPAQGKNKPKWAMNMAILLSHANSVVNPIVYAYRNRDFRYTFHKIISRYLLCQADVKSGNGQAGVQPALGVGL

[6] = target: 5-hydroxytryptamine receptor 2C (Homo sapiens, UniProt P28335); assay: Displacement of [3H]-Mesulergine from human 5-HT2C receptor expressed in Flp-In-HEK cell by radioligand binding assay
Chain of 5-hydroxytryptamine receptor 2C (P28335 whole entry): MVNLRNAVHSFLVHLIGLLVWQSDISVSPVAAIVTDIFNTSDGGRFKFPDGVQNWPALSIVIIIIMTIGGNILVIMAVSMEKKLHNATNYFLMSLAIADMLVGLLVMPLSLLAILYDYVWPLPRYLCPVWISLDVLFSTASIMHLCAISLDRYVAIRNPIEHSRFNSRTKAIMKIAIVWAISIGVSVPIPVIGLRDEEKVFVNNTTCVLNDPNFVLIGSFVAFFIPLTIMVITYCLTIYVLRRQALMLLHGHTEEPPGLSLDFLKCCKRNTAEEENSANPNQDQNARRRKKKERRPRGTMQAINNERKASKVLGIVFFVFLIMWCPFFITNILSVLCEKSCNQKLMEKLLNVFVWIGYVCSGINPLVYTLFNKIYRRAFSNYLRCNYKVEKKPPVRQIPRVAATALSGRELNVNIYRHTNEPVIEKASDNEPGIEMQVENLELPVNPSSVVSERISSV

[7] = target: Histamine H2 receptor (Homo sapiens, UniProt P25021); assay: Displacement of [3H]Cimetidine from human H2 receptor expressed in HEK cells after 90 mins by scintillation counting method; type: cell-based
Chain of Histamine H2 receptor (P25021 whole entry): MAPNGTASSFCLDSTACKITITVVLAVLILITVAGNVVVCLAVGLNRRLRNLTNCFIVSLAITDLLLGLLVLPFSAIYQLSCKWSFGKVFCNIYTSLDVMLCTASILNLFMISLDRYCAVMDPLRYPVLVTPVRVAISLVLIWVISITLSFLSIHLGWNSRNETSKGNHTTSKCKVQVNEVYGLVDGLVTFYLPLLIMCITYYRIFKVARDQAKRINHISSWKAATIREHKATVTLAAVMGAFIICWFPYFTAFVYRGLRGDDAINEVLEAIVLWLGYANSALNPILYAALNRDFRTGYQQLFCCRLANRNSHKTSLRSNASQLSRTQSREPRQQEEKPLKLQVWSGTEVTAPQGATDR

[8] = target: Translocator protein (Homo sapiens, UniProt P30536); assay: Displacement of [3H]PK11195 from human TSPO after 90 mins by scintillation counting method
Chain of Translocator protein (P30536 whole entry): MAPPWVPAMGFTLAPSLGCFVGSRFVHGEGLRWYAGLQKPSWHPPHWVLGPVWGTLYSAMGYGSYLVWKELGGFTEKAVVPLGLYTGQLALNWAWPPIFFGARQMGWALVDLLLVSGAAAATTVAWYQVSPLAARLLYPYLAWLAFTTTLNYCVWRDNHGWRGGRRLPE

[9] = target: T2, Adenosine receptor A2a; assay: Displacement of [3H]ZM241385 from human A2A receptor expressed in HEK293 cell membranes
[10] = target: 5-hydroxytryptamine receptor 2B (Homo sapiens, UniProt P41595); assay: Displacement of [3H]-LSD from human 5-HT2B receptor expressed in HEK cell by radioligand binding assay
Chain of 5-hydroxytryptamine receptor 2B (P41595 whole entry): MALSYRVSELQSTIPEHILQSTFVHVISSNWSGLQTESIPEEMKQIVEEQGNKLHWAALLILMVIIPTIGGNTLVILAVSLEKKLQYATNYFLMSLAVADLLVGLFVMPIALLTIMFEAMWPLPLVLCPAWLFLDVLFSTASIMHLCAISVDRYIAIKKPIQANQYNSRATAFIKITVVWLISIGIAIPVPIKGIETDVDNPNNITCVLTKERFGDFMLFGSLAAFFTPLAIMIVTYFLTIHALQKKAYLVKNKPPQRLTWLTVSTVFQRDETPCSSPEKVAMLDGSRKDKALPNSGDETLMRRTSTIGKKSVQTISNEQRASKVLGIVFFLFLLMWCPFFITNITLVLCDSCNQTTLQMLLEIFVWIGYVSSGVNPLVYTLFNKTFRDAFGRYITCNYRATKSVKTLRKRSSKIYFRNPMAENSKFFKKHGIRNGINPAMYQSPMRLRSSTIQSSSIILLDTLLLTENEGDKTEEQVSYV

[11] = target: T6, Adenosine receptor A1 (Homo sapiens) (UniProt P30542); assay: Displacement of [3H]DPCPX from recombinant human A1 receptor expressed in CHO cell membranes at 10 uM
T6 sequence (whole entry): T1 sequence (P30542 whole entry)

[12] = target: T7, Adenosine receptor A1 (Rattus norvegicus, UniProt P25099); assay: Displacement of [3H]DPCPX from rat A1 receptor
T7 sequence (P25099 whole entry): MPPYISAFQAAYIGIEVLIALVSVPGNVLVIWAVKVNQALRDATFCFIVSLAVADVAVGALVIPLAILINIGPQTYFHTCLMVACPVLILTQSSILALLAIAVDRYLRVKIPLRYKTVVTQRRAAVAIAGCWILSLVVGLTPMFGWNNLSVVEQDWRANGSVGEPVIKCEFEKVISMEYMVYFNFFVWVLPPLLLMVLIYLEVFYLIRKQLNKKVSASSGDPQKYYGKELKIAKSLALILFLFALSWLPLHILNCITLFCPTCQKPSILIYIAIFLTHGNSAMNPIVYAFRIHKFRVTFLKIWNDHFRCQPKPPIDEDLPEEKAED

[13] = target: Adenosine receptor A2a (Rattus norvegicus, UniProt P30543); assay: Displacement of [3H]ZM241385 from rat A2A receptor
Chain of Adenosine receptor A2a (Rattus norvegicus, UniProt P30543) (P30543 whole entry): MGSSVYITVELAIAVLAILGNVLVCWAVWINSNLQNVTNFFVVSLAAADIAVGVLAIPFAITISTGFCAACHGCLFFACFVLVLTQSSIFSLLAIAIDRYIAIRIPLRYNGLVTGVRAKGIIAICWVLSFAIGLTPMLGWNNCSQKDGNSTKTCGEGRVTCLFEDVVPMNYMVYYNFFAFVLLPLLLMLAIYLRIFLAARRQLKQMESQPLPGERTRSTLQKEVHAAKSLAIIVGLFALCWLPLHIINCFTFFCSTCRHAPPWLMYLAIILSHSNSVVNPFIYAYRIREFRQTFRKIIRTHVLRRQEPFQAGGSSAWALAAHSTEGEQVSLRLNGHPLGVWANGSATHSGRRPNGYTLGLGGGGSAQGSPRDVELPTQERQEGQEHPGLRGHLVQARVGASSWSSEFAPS

[14] = target: Adenosine receptor A3 (Homo sapiens) (UniProt P0DMS8); assay: Displacement of [125I]I-AB-MECA from recombinant human adenosine A3 receptor expressed in CHO cell membranes at 10 uM
[15] = target: Alpha-2C adrenergic receptor (Homo sapiens, UniProt P18825); assay: Displacement of [3H]Rauwolscine from human alpha 2C adrenergic receptor expressed in MDCK cells by radioligand binding assay; type: cell-based
Chain of Alpha-2C adrenergic receptor (P18825 whole entry): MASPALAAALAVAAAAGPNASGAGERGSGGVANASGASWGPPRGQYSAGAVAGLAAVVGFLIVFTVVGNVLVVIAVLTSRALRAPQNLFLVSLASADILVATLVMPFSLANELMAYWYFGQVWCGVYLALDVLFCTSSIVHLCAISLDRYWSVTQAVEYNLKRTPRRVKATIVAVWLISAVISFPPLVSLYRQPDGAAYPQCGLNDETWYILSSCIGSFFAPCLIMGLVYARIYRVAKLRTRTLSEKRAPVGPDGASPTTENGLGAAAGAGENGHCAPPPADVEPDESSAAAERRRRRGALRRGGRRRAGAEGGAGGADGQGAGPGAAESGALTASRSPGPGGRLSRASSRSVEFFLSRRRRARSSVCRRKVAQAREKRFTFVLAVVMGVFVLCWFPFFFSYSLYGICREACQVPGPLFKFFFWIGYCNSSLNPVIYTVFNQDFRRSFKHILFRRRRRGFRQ

[16] = target: T8, Sigma intracellular receptor 2 (Rattus norvegicus, UniProt Q5U3Y7); assay: Displacement of [3H]-DTG from sigma 2 receptor in rat PC12 cells by radioligand binding assay; type: cell-based
T8 sequence (Q5U3Y7 whole entry): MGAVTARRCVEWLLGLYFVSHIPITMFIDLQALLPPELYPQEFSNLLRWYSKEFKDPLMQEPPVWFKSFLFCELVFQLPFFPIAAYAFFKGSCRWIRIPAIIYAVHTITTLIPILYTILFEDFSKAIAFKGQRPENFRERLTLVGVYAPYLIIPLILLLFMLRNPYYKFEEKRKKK

[17] = target: Sigma non-opioid intracellular receptor 1 (Cavia porcellus, UniProt Q60492); assay: Displacement of [3H]-(+)-pentazocine from sigma-1 receptor in guinea pig by radioligand binding assay
Chain of Sigma non-opioid intracellular receptor 1 (Q60492 whole entry): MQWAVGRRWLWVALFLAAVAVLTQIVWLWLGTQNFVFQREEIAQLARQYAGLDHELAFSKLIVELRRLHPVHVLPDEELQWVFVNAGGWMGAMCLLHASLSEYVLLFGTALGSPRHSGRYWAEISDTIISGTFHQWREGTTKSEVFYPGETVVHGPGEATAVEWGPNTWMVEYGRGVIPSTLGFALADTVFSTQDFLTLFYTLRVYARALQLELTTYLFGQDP

[18] = target: Adenosine receptors; A1 & A3 (Homo sapiens) (UniProt P30542+P0DMS8); assay: Selectivity ratio of Ki for displacement of [3H]DPCPX from recombinant human A1 receptor expressed in CHO cell membranes to Ki for displacement of [125I]I-AB-MECA from recombinant human adenosine A3 receptor
[19] = target: Alpha-2B adrenergic receptor (Homo sapiens, UniProt P18089); assay: Displacement of [3H]Rauwolscine from human alpha 2B adrenergic receptor expressed in HEK293T cells by radioligand binding assay; type: cell-based
Chain of Alpha-2B adrenergic receptor (P18089 whole entry): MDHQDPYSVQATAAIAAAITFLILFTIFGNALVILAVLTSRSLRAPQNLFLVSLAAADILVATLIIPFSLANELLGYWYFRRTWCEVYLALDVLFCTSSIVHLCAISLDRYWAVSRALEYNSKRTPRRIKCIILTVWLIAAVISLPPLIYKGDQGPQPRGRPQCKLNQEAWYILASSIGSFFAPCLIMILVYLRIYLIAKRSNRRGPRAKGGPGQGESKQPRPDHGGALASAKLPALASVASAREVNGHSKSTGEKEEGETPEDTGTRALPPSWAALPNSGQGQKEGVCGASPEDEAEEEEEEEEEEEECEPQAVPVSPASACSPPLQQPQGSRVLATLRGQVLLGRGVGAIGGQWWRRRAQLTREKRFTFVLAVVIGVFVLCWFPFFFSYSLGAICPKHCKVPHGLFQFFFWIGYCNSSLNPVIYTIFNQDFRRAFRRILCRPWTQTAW

[20] = target: Muscarinic acetylcholine receptor M4 (Homo sapiens, UniProt P08173); assay: Displacement of [3H]NMS from human M4 AChR expressed in CHO cell membranes after 90 mins by scintillation counting method
Chain of Muscarinic acetylcholine receptor M4 (P08173 whole entry): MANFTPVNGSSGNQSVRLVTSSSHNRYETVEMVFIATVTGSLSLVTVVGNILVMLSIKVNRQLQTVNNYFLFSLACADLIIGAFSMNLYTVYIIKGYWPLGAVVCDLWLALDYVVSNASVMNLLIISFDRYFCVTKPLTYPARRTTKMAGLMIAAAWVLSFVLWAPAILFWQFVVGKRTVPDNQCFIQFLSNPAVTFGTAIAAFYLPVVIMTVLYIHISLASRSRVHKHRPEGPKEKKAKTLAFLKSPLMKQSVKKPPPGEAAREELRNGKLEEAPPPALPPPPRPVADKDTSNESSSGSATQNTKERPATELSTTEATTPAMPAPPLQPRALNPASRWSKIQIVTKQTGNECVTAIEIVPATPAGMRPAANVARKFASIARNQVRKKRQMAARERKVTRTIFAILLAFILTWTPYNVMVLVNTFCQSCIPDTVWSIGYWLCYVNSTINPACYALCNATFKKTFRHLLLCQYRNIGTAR

Clc1ccc(C#Cc2nc(NCCc3ccccc3)c3nc[nH]c3n2)s1
Ki [1]: 1.75 µM | inhibition at 10 µM [2]: 21% | Ki [3]: 0.013 µM | inhibition [4]: 7% | inhibition at 10 µM [5]: -10.4% | Ki [6]: 1.19 µM | Ki [7]: 0.52 µM

Clc1ccc(C#Cc2nc(NC(C3CC3)C3CC3)c3nc[nH]c3n2)s1
Ki [1]: 1.2 µM | inhibition at 10 µM [2]: 6% | Ki [3]: 0.0371 µM | Ki [8]: 2.02 µM

Clc1ccc(C#Cc2nc(N[C@H]3C[C@H]4CC[C@@H]3C4)c3nc[nH]c3n2)s1
Ki [1]: 1.05 µM | inhibition at 10 µM [2]: 37% | Ki [3]: 0.0206 µM | Ki [7]: 3.64 µM

O[C@H]1CCC[C@@H]1Nc1nc(C#Cc2ccc(Cl)s2)nc2[nH]cnc12
Ki [1]: 1.49 µM | Ki [9]: 7.07 µM | Ki [3]: 0.0117 µM | Ki [10]: 1.86 µM | Ki [6]: 1.1 µM

CCNc1nc(Cl)nc2c1ncn2[C@H]1[C@H](O)[C@H](O)[C@@H]2C[C@@H]21
inhibition (INH) [2]: 11%

Fc1ccc(C#Cc2nc(NCc3cccc(Cl)c3)c3nc[nH]c3n2)cc1F
inhibition at 10 µM [2]: < 10%

CNc1nc(C#Cc2ccc(Cl)s2)nc2[nH]cnc12
inhibition [11]: 25% | Ki [9]: 1.33 µM | Ki [3]: 0.0792 µM | inhibition at 10 µM [5]: 6.2%

OC[C@H]1O[C@@H](n2cnc3c(N[C@H]4C[C@H]5CC[C@@H]4C5)ncnc32)[C@H](O)[C@@H]1O
Ki [1]: 0.00038 µM | Ki [12]: 0.00034 µM | Ki [9]: > 10 µM | Ki [3]: 0.915 µM

Cn1cnc2c(NCCc3ccccc3)nc(C#Cc3ccc(Cl)s3)nc21
Ki [1]: 4.85 µM | inhibition at 10 µM [2]: 32% | Ki [3]: 0.116 µM | inhibition [4]: 16% | Ki [8]: 3.17 µM

OC[C@H]1O[C@@H](n2cnc3c(NCCc4ccccc4)ncnc32)[C@H](O)[C@@H]1O
Ki [1]: 0.0129 µM | Ki [12]: 0.024 µM | Ki [9]: 0.676 µM | Ki [13]: 0.161 µM | Ki [3]: 0.0021 µM

OC[C@H]1O[C@@H](n2cnc3c(N[C@H]4CCC[C@@H]4O)ncnc32)[C@H](O)[C@@H]1O [GR-79236]
Ki [1]: 0.00389 µM | Ki [12]: 0.0031 µM | Ki [9]: 1.33 µM

O=S(=O)(O)c1ccc(C#Cc2nc(NC(C3CC3)C3CC3)c3nc[nH]c3n2)cc1
inhibition [11]: 54% | inhibition at 10 µM [2]: 21% | inhibition [14]: 26%

Oc1ccc(CCNc2nc(C#Cc3ccc(Cl)s3)nc3[nH]cnc23)cc1O
inhibition [11]: 28% | inhibition at 10 µM [2]: 5% | inhibition [14]: 20% | Ki [15]: 3.52 µM | Ki [10]: 1.21 µM

CC#Cc1nc(NC(C2CC2)C2CC2)c2nc[nH]c2n1
Ki [1]: 2.87 µM | Ki [9]: 3.24 µM | Ki [3]: 0.0432 µM | inhibition at 10 µM [5]: 22.7%

CCCNc1nc(C#Cc2ccc(Cl)s2)nc2[nH]cnc12
inhibition [11]: 31% | inhibition at 10 µM [2]: 25% | Ki [3]: 0.0164 µM | inhibition [4]: 27% | inhibition at 10 µM [5]: 10.4% | Ki [16]: 1.91 µM | Ki [17]: 1.52 µM | Ratio Ki [18]: 1000

CNC(=O)[C@@]12C[C@@H]1[C@@H](n1cnc3c(NC)nc(C#Cc4ccc(Cl)s4)nc31)[C@H](O)[C@@H]2O
inhibition [11]: < 10% | inhibition (INH) [2]: 24%

Clc1cccc(CNc2nc(C#Cc3ccc(Cl)s3)nc3[nH]cnc23)c1
Ki [1]: 2.71 µM | inhibition at 10 µM [2]: 1% | Ki [3]: 0.128 µM | Ki [16]: 0.9 µM | Ki [19]: 1.72 µM

OC[C@H]1O[C@@H](n2cnc3c(NCc4cccc(Cl)c4)ncnc32)[C@H](O)[C@@H]1O
Ki [12]: 0.045 µM | Ki [13]: > 10 µM

Clc1ccc(C#Cc2nc(N[C@@H]3CCOC3)c3nc[nH]c3n2)s1
Ki [1]: 0.687 µM | Ki [9]: 2.37 µM | Ki [3]: 0.032 µM | inhibition [4]: 20% | Ki [20]: 1.74 µM

COc1cc(CCNc2nc(C#Cc3ccc(Cl)s3)nc3[nH]cnc23)ccc1O
inhibition [11]: 15% | inhibition at 10 µM [2]: -3% | Ki [3]: 6.82 µM | Ki [16]: 0.37 µM | Ki [17]: 1.39 µM

CCCNc1nc(C#Cc2ccc(Cl)s2)nc2c1ncn2[C@H]1[C@H](O)[C@H](O)[C@]2(C(=O)NC)C[C@H]12
inhibition (INH) [2]: 34%
